According to article PMC5285354, “Cationic Net Charge and Counter Ion Type as Antimicrobial Activity Determinant Factors of Short Lipopeptides” (Frontiers in Microbiology, 2017):
Converted amounts (≈) assume the structure as drawn.

What was measured:
Type in all cases: cell-based
[1] = test system: Aspergillus brasiliensis (ATCC 16404); conditions: ATCC 16404, 48 h
Method in brief: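 CLSI broth microdilution: bacteria in Mueller-Hinton broth at 10^5 cfu/mL inoculum, 18 h at 37°C; fungi in Sabouraud Dextrose broth at 10^3 cfu/mL, 48 h at 25°C. MIC (μg/mL) is the lowest lipopeptide concentration inhibiting visible growth; triplicate on three days.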

[2] = test system: Bacillus subtilis (ATCC 6633); conditions: for MIC Bacillus subtillis: ATCC 6633, 18 h; for MBC Bacillus subtillis: ATCC 6633, 24 h
Method in brief: (§1)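 Broth microdilution per CLSI: Mueller-Hinton broth, 10^5 cfu/mL inoculum, 18 h at 37°C for bacteria; Sabouraud dextrose broth, 10^3 cfu/mL, 48 h at 25°C for fungi. MIC (μg/mL) is the lowest lipopeptide concentration inhibiting visible growth; MBC/MFC also determined. Triplicate on three days.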

[3] = test system: Candida albicans (ATCC 10231); conditions: ATCC 10231, 48 h
Method in brief: as §1

[4] = test system: Candida tropicalis (PCM 2681); conditions: PCM 2681, 48 h
Method in brief: as §1

[5] = test system: Enterococcus faecalis (ATCC 29212); conditions: for MBC Enterococcus fecalis, lipopeptides without TFA counter ion / MIC Enterococcus fecalis / MIC Enterococcus fecalis, lipopeptides without TFA counter ion: ATCC 29212, 18 h; for MBC Enterococcus fecalis: ATCC 29212, 24 h
Method in brief: as §1

[6] = test system: Escherichia coli (ATCC 25922); conditions: for MBC Escherichia coli, lipopeptides without TFA counter ion / MIC Escherichia coli / MIC Escherichia coli, lipopeptides without TFA counter ion: ATCC 25922, 18 h; for MBC Escherichia coli: ATCC 25922, 24 h
Method in brief: as §1

[7] = test system: Klebsiella pneumoniae (ATCC 700603); conditions: for MBC Klebsiella pneumoniae, lipopeptides without TFA counter ion / MIC Klebsiella pneumoniae / MIC Klebsiella pneumoniae, lipopeptides without TFA counter ion: ATCC 700603, 18 h; for MBC Klebsiella pneumoniae: ATCC 700603, 24 h
Method in brief: as §1

[8] = test system: Proteus vulgaris (PCM 2668); conditions: 18 h
Method in brief: as §1

[9] = test system: Pseudomonas aeruginosa (ATCC 9027); conditions: ATCC 9027, 18 h
Method in brief: as §1

[10] = test system: Staphylococcus aureus (ATCC 25923); conditions: for MBC Staphylococcus aureus, lipopeptides without TFA counter ion / MIC Staphylococcus aureus / MIC Staphylococcus aureus, lipopeptides without TFA counter ion: ATCC 25923, 18 h; for MBC Staphylococcus aureus: ATCC 25923, 24 h
Method in brief: as §1

[11] = test system: Staphylococcus epidermidis (PCM 2118); conditions: for MIC Staphylococcus epidermidis: PCM 2118, 18 h; for MBC Staphylococcus epidermidis: PCM 2118, 24 h
Method in brief: as §1

human red blood cells = conditions: 1 h
Method in brief: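 Washed donor erythrocytes (4% v/v in PBS, EDTA-anticoagulated) incubated with graded lipopeptide concentrations for 1 h at 37 °C; hemoglobin release read at 550 nm in supernatants. Scaled between 0.1% Triton X-100 (100%) and PBS (0%); MHC is the lowest concentration giving 10% hemolysis.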

[12] = test system: Pseudomonas aeruginosa (ATCC 9027); conditions: ATCC 9027, 24 h
[13] = test system: Proteus vulgaris (PCM 2668); conditions: 24 h
[14] = test system: Candida albicans (ATCC 10231)

SMILES	MFC Aspergillus brasiliensis [1] [µg/mL]	MIC Aspergillus brasiliensis [1] [µg/mL]	MIC Bacillus subtillis [2] [µg/mL]	MBC Bacillus subtillis [2] [µg/mL]	MFC Candida albicans [3] [µg/mL]	MIC Candida albicans [3] [µg/mL]	MIC Candida albicans, lipopeptides without TFA counter ion [3] [µg/mL]	MFC Candida tropicalis [4] [µg/mL]	MIC Candida tropicalis [4] [µg/mL]	MBC Enterococcus fecalis, lipopeptides without TFA counter ion [5] [µg/mL]	MIC Enterococcus fecalis [5] [µg/mL]	MIC Enterococcus fecalis, lipopeptides without TFA counter ion [5] [µg/mL]	MBC Enterococcus fecalis [5] [µg/mL]	MBC Escherichia coli, lipopeptides without TFA counter ion [6] [µg/mL]	MIC Escherichia coli [6] [µg/mL]	MIC Escherichia coli, lipopeptides without TFA counter ion [6] [µg/mL]	MBC Escherichia coli [6] [µg/mL]	MBC Klebsiella pneumoniae, lipopeptides without TFA counter ion [7] [µg/mL]	MIC Klebsiella pneumoniae [7] [µg/mL]	MIC Klebsiella pneumoniae, lipopeptides without TFA counter ion [7] [µg/mL]	also measured
CCCCCCCCCCCCCC(=O)N[C@@H](CCCCN)C(=O)N[C@@H](CCCCN)C(N)=O [C14-KK-NH2]	256 (≈ 529 µM)	256 (≈ 529 µM)	4 (≈ 8.27 µM)	4 (≈ 8.27 µM)	128 (≈ 265 µM)	128 (≈ 265 µM)	256 (≈ 529 µM)	256 (≈ 529 µM)	256 (≈ 529 µM)	32 (≈ 66.2 µM)	32 (≈ 66.2 µM)	32 (≈ 66.2 µM)	64 (≈ 132 µM)	64 (≈ 132 µM)	64 (≈ 132 µM)	32 (≈ 66.2 µM)	128 (≈ 265 µM)	128 (≈ 265 µM)	128 (≈ 265 µM)	128 (≈ 265 µM)	MBC Klebsiella pneumoniae [7]: 128 µg/mL (≈ 265 µM); MIC Proteus vulgaris [8]: >512 µg/mL; MIC Pseudomonas aeruginosa [9]: 32 µg/mL (≈ 66.2 µM); MBC Staphylococcus aureus, lipopeptides without TFA counter ion [10]: 64 µg/mL (≈ 132 µM); MIC Staphylococcus aureus [10]: 64 µg/mL (≈ 132 µM); MIC Staphylococcus aureus, lipopeptides without TFA counter ion [10]: 32 µg/mL (≈ 66.2 µM); MBC Staphylococcus aureus [10]: 64 µg/mL (≈ 132 µM); MIC Staphylococcus epidermidis [11]: 4 µg/mL (≈ 8.27 µM); MBC Staphylococcus epidermidis [11]: 4 µg/mL (≈ 8.27 µM); Hemolysis HC10 (MHC), concentration of lipopeptide inducing 10% of hemolysis (human red blood cells): 128 µg/mL; MBC Pseudomonas aeruginosa [12]: 64 µg/mL (≈ 132 µM); MBC Proteus vulgaris [13]: >512 µg/mL; MFC Candida albicans, lipopeptides without TFA counter ion [14]: 256 µg/mL (≈ 529 µM)
CCCCCCCCCCCCCC(=O)N[C@@H](CCCCN)C(=O)N[C@@H](CCCCN)C(=O)N[C@@H](CCCCN)C(N)=O [C14-KKK-NH2]	64 (≈ 105 µM)	64 (≈ 105 µM)	4 (≈ 6.54 µM)	4 (≈ 6.54 µM)	128 (≈ 209 µM)	128 (≈ 209 µM)	256 (≈ 418 µM)	128 (≈ 209 µM)	128 (≈ 209 µM)	64 (≈ 105 µM)	64 (≈ 105 µM)	32 (≈ 52.3 µM)	64 (≈ 105 µM)	128 (≈ 209 µM)	128 (≈ 209 µM)	128 (≈ 209 µM)	128 (≈ 209 µM)	256 (≈ 418 µM)	128 (≈ 209 µM)	128 (≈ 209 µM)	MBC Klebsiella pneumoniae [7]: 128 µg/mL (≈ 209 µM); MIC Proteus vulgaris [8]: >512 µg/mL; MIC Pseudomonas aeruginosa [9]: 32 µg/mL (≈ 52.3 µM); MBC Staphylococcus aureus, lipopeptides without TFA counter ion [10]: 32 µg/mL (≈ 52.3 µM); MIC Staphylococcus aureus [10]: 64 µg/mL (≈ 105 µM); MIC Staphylococcus aureus, lipopeptides without TFA counter ion [10]: 32 µg/mL (≈ 52.3 µM); MBC Staphylococcus aureus [10]: 64 µg/mL (≈ 105 µM); MIC Staphylococcus epidermidis [11]: 8 µg/mL (≈ 13.1 µM); MBC Staphylococcus epidermidis [11]: 8 µg/mL (≈ 13.1 µM); Hemolysis HC10 (MHC), concentration of lipopeptide inducing 10% of hemolysis (human red blood cells): 256 µg/mL; MBC Pseudomonas aeruginosa [12]: 128 µg/mL (≈ 209 µM); MBC Proteus vulgaris [13]: >512 µg/mL; MFC Candida albicans, lipopeptides without TFA counter ion [14]: 256 µg/mL (≈ 418 µM)
